Reference: patent publication US20120022121A1, “INDOLES, DERIVATIVES AND ANALOGS THEREOF AND USES THEREFOR” (priority 2007, published 2012)

Assays:
[1] = tested on: PC-3 cells; assay: Indirect immunofluorescence microscopy of microtubules; assay type: cell-based, human; conditions: 24 h, anti-α-tubulin-FITC
Experimental: PC-3 cells were plated on poly-D-lysine coated glass cover slips in 6-well plates (5×10^4 cells/well) the day before treatment. After cells were incubated with cytotoxic agents at 37° C. for 24 h, cells were fixed on the cover slips with 4% formaldehyde in PBS for 10 min and permeabilized by 2% Triton-X in PBS for 5 min at rt. Fixed cells were blocked with 3% bovine serum albumin in TBST for 30 min and incubated with anti-α-tubulin-FITC antibody (1:100 dilution) at 4° C. overnight. Cover slips were mounted on slides using mounting medium with 4′,6-diamidino-2-phenylindole (DAPI), followed by microscopic analysis with a Zeiss Axioplan 2 fluorescent microscope (Carl Zeiss, Thornwood, N.Y.). Images were acquired with a Zeiss Axiocam HRc, using Zeiss AxioVision.

[2] = tested on: K562; assay: Growth inhibition assay (MTT, 96 h); assay type: cell-based; conditions: Homo sapiens, K562 (parental)
Excerpt: (§1) MTT (3-(4,5-dimethylthiazol-2-yl)-2,5-diphenyltetrazolium bromide) assay was also used for the leukemia cell lines. […] Cells were stained with SRB solution or MTT solution.

[3] = tested on: HEK293-pcDNA3-10; assay: Growth inhibition assay (96 h); assay type: cell-based, human; conditions: Homo sapiens, HEK293-pcDNA3-10 (control for BCRP)
Excerpt: as §1

[4] = tested on: cyclin B1, Cdc25C, Cdc2; assay: Western blot of G2-M regulators; assay type: cell-based, human; conditions: PC-3 cells, 24 h treatment
Experimental: Treated cells were lysed in cold lysis buffer (20 mM Tris-HCl, pH 7.5, 150 mM NaCl, 1 mM Na2 EDTA, 1% Triton x-100, and freshly added Na3VO4 (2 mM), NaF (20 mM) and complete protease inhibitor cocktail). For each sample, an aliquot (20 to 40 μg) of total protein was loaded and run on a SDS-Page gel. Protein was transferred to nitrocellulose membranes (Bio-Rad Laboratories, Hercules, Calif.), blocked with 5% non-fat milk, incubated with primary antibody overnight at 4° C., and then incubated with secondary antibody at rt for 1 h. ECL™ (GE Healthcare Bio-Sciences Corp., Piscataway, N.J.) was used for detection. The band intensity was measured by densitometry using TotalLab TL100 Software v2006 (Nonlinear Dynamics Ltd., Newcastle upon Tyne, UK).

[5] = tested on: tubulin; assay: In vitro binding assay by spin column; parameters: species or system bovine; conditions: colchicine-binding site, 37° C., 1 h
[6] = tested on: T1, tubulin; assay: In vitro binding assay by spin column; parameters: species or system bovine; conditions: vinblastine-binding site, 37° C., 1 h
T1 construct: IC50 of microtubule formation (tubulin polymerization); other: cell free, turbidity 340 nm, 40 min

[7] = tested on: HEK293-482R2; assay: Growth inhibition assay (96 h); assay type: cell-based, human
[8] = Subchronic toxicity in ICR mice; assay type: in vivo
Excerpt: The maximally tolerated dose (MTD) in the mouse was identified. […] Body weight changes and morbidity in treated animals were used as a direct measure of toxicity.

[9] = tested on: PC-3 xenograft; assay: Antitumor activity in PC-3 xenograft; assay type: in vivo, Balb/c mice; conditions: 50, 100, or 150 mg/kg/d, 5 days on/2 days off
Experimental: PC-3 tumor cells (2×10^6 cells) were suspended in saline and injected S.C. in both flanks of recipient mice (n=15). Tumor size was measured every other day and volume calculated as V=π/6*(length)x(width)^2 (75). […] Tumor growth and body weight was monitored every other day for the remainder of the study.

[10] = tested on: Bcl-2; assay: Western blot of anti- and pro-apoptosis proteins; assay type: cell-based, human; conditions: LNCaP and PC-3, increasing concentration, 24 h
Experimental: Cell viability (LNCaP, PC-3 prostate, DU145, PPC-1, and TSU-Pr1 prostate cancer cell lines, HT-29 colon cancer cell line, and MCF-7 breast cancer cell line) was quantitated using the sulforhodamine B (SRB) assay after 96 h coincubation with different concentrations of compound in 96-well plates. Cell viability of leukemia cells (K562 and doxorubicin-resistant K562/Dox) was quantitated by MTT assay after 96 h coincubation with different concentrations of compound in 96-well plates. Drug-induced apoptosis was determined by anti-histone ELISA assay and DNA laddering. Cell cycle progression was assessed by propidium iodide staining and fluorescence-activated cell sorting (FACS) analysis. In vitro tubulin polymerization assay was determined by CytoDYNAMIX ScreenTM3 (CDS-03) kits according to the manufacturer's instructions. Anti-apoptosis protein (Bcl-2 and Bcl-xl) and pro-apoptosis protein (Bax) were examined in LNCaP and PC-3 after 24 h incubation with different concentrations of compound 13 by Western blot assay. In vivo PC-3 xenograft studies were conducted by i.v. dosing of 50 mg/kg, 100 mg/kg and 150 mg/kg for 2 weeks.
100 nM of compound 13 was incubated with LNCaP for 24 h and PC-3 for 48 h. […] The results are expressed as enrichment factor (Enrichment factor=OD of treated cells/OD from control cells). […]

[11] = tested on: CV-1; assay: Cell viability SRB assay, 96 h; assay type: cell-based; conditions: Cercopithecidae, CV-1 fibroblast cell line
Experimental: Cells were plated in 96-well plates at a density of 800-5,000 cells/well, depending on the cell line, in their required growth media containing 10% fetal bovine serum. Preliminary studies were performed with each cell line using a variety of cell densities and incubation times to determine appropriate seeding densities. The compound of interest was dissolved in DMSO, diluted in cell culture medium (final DMSO concentration was less than 0.5% v/v), and added to quadruplicate wells at final concentrations ranging from 0 to 100 μM. Control wells to which only drug-free vehicle was added were included as negative controls.
Cells were incubated for 96 hour at 37° C. in a humidified atmosphere containing 5% carbon dioxide.

[12] = tested on: LNCaP and PC-3 cells; assay: DNA fragmentation by agarose gel electrophoresis; assay type: cell-based, human
Experimental: LNCaP and PC-3 cells were treated with different concentrations of drugs for different periods of time. At the end of the incubation, both floating and adherent cells were collected. […] DNA was visualized by ethidium bromide staining and UV transillumination.

Question: For `CC[C@]1(O)C[C@@H]2CN(CCc3c([nH]c4ccccc34)[C@@](C(=O)OC)(c3cc4c(cc3OC)N(C)[C@H]3[C@@](O)(C(=O)OC)[C@H](OC(C)=O)[C@]5(CC)C=CCN6CC[C@]43[C@@H]65)C2)C1` [Vinblastine], which “microtubule changes by immunofluorescence” value [1] is on record?
Answer: short microtubules

Question: Which IC50 [2] does the source give for `COc1cc(C(=O)c2cccc(-c3cc4ccccc4[nH]3)c2)cc(OC)c1OC` [Compound 68, [3-(1H-Indol-2-yl)-phenyl]-(3,4,5-trimethoxy-phenyl)-methanone] here?
Answer: 23.6 ± 2.4 nM

Question: And the IC50 [3]?
Answer: 13.5 ± 1.6 nM

Question: And the “concentration at which cyclin B1 accumulation, Cdc25C (Ser216) and Cdc2 dephosphorylation were observed” value [4]?
Answer: higher than 50 nM

Question: What about the “[3H]podophyllotoxin binding to tubulin” value [5] of the same molecule?
Answer: inhibited

Question: And the “displacement of [3H]vinblastine from tubulin” value [6]?
Answer: not able to displace

Question: And the “resistance factor (ratio of IC50 resistant subline to parental cell line)” value ([7]; HEK293-482R2 (BCRP) vs HEK293-pcDNA3-10)?
Answer: (1.0)

Question: What about the IC50 ([7]; Homo sapiens, HEK293-482R2, BCRP over-expressed, 96 h) of the same molecule?
Answer: 13.6 ± 1.3 nM

Question: For `O=C(c1cccc(-c2cc3ccccc3[nH]2)c1)c1cc2ccccc2[nH]1` [Compound 13, (1H-indol-2-yl)-[3-(1H-indol-2-yl)phenyl]methanone], which tolerability ([8]; 50, 100 and 200 mg/kg S.C., 4 weeks, 5-days on/2 days off) is on record?
Answer: generally well tolerated

Question: And the “morbidity or rate of gain in body weight vs control” value ([8]; 50 or 100 mg/kg S.C., 4 weeks)?
Answer: no significant difference

Question: And the “less body weight gain as compared to control animals” value ([8]; highest dose (200 mg/kg) S.C., 4-week treatment)?
Answer: 20%

Question: And the tumor growth [9]?
Answer: suppressed tumor growth in a dose-dependent manner

Question: And the “Bcl-2 level by Western blot” value [10]?
Answer: decreased

Question: What about the IC50 [11] of the same molecule?
Answer: 78.3 ± 35 nM

Question: What about the DNA fragmentation [12] of the same molecule?
Answer: induced DNA fragmentation
